Measured values as given in patent publication US20260285857A1, “BICYCLIC AND HETEROCYCLIC AMIDE COMPOUNDS” (priority 2024, published 2026).

System: immunoglobulin light chain protein WIL-FL T46L
Experiment: Differential scanning fluorimetry (thermal shift) assay
Assay type: binding
Details: Table A; temperature shift [Tm]compound-[Tm]vehicle; recombinant WIL-FL T46L

Row | SMILES | DSF
1 | Cc1cc(N2CC[C@](C)(c3ncco3)C2)cn2nc(C(=O)N3CC[C@@]4(CCN(c5cccc(C(=O)O)n5)C4)C3)nc12 [Compound 21, 6-((R)-7-(8-methyl-6-((S)-3-methyl-3-(oxazol-2-yl)pyrrolidin-1-yl)-[1,2,4]triazolo[1,5-a]pyridine-2-carbonyl)-2,7-diazaspiro[4.4]nonan-2-yl)picolinic acid] | *** (>1-1.5° C.=***)
2 | Cc1cc(N2CC(C)(c3ccccc3)CC2=O)cn2nc(C(=O)N3CC[C@@]4(CCN(c5cccc(C(=O)O)n5)C4)C3)nc12 (stereo partly shown) [Compound 387] | ** (>0.5-1 °C =**)
3 | Cc1cc(N2CC[C@](C)(c3ccccc3)C2)cn2nc(C(=O)NC3CCN(c4ncc(S(C)(=N)=O)cn4)C3)nc12 (stereo partly shown) [Compound 237] | ***** (>2.5° C.=*****)
4 | Cc1cc(N2CC[C@](C)(c3ccccc3)C2)cn2nc(C(=O)N[C@H]3COC[C@@H]3F)nc12 [Compound 121] | ***** (>2.5° C.=*****)
5 | CO[C@@H]1CNC[C@H]1NC(=O)c1nc2c(C)cc(N3CC[C@](C)(c4ccccc4)C3)cn2n1 [Compound 140] | ***** (>2.5° C.=*****)
6 | Cc1cc(N2CC[C@](C)(c3ccccc3)C2)cn2nc(C(=O)NC34CCC(O)(C3)C4)nc12 [Compound 111] | ***** (>2.5° C.=*****)
7 | Cc1cc(N2CC[C@](C)(c3ccccc3)C2)cn2nc(C(=O)N3C[C@H]4C[C@@H]3C[C@H]4Oc3cccc(C(=O)O)n3)nc12 [Compound 280] | ***** (>2.5° C.=*****)
8 | Cc1cc(N2CC[C@](C)(c3ccccc3)C2)cn2nc(C34CC(CO3)C4Cn3cn[nH]c3=O)nc12 (stereo partly shown) [Compound 88] | ***** (>2.5° C.=*****)
9 | COC(CO)CNC(=O)c1nc2c(C)cc(N3CC[C@](C)(c4ccccc4)C3)cn2n1 (stereo partly shown) [Compound 148] | ***** (>2.5° C.=*****)
10 | Cc1cc(N2CC[C@](C)(c3ccccc3)C2)cn2nc(C34CCC(N)(CC3)CO4)nc12 [Compound 64] | ***** (>2.5° C.=*****)
11 | Cc1cc(N2CC[C@](C)(c3ccccc3)C2)cn2nc(C(=O)N3CCCC(C(=O)O)C3)nc12 (stereo partly shown) [Compound 197] | ***** (>2.5° C.=*****)
12 | Cc1ccc([C@@]2(C)CCN(c3cc(C)c4nc(C(=O)N5C[C@@H]6CN(c7cccc(C(=O)O)n7)C[C@@H]6C5)nn4c3)C2)cc1 [Compound 414] | ***** (>2.5° C.=*****)
13 | Cc1cc(N2CC[C@](C)(c3ccccc3)C2)cn2nc(C(=O)N3CC4CN(c5cccc(C(=O)O)n5)CC4(F)C3)nc12 (stereo partly shown) [Compound 244] | ***** (>2.5° C.=*****)
14 | Cc1cc(N2CC[C@](C)(c3ccccc3)C2)cn2nc(C(=O)N3CCC4(CCN(c5nc(C(=O)O)nn5C)C4)C3)nc12 (stereo partly shown) [Compound 234] | ***** (>2.5° C.=*****)
15 | CC(=O)NC12COC(c3nc4c(C)cc(N5CC[C@](C)(c6ccccc6)C5)cn4n3)(C1)C2 [Compound 52] | ***** (>2.5° C.=*****)
16 | Cc1cc(N2CC[C@](C)(c3ccccc3)C2)cn2nc(C(=O)N[C@@H]3CNCC34CC4)nc12 [Compound 186] | ***** (>2.5° C.=*****)

Same assay, conditions: Table B; temperature shift [Tm]compound-[Tm]vehicle; recombinant WIL-FL T46L

Row | SMILES | DSF
17 | Cc1cc(N2CC[C@](C)(c3ccccc3)C2)cn2nc(C34CC(CO3)C4c3nc(N)nn3S(=O)(=O)C3CC(C)(C(=O)O)C3)nc12 (stereo partly shown) [Compound 566] | ***** (>2.5° C.=*****)
18 | Cc1cc(N2CC[C@](C)(c3ccccc3)C2)cn2nc(C34CC(C(=O)N[C@@H](C)CO)(CO3)C4)nc12 [Compound 442] | ***** (>2.5° C.=*****)
19 | Cc1cc(N2CC[C@](C)(c3ccccc3)C2)cn2nc(C34CC(CO3)C4N3CC4(COC4)NC3=O)nc12 (stereo partly drawn) [Compound 509, 7-(1-(8-methyl-6-((R)-3-methyl-3-phenylpyrrolidin-1-yl)-[1,2,4]triazolo[1,5-a]pyridin-2-yl)-2-oxabicyclo[2.1.1]hexan-5-yl)-2-oxa-5,7-diazaspiro[3.4]octan-6-one] | ***** (>2.5° C.=*****)
20 | Cc1cc(N2CC[C@](C)(c3ccccc3)C2)cn2nc(C34CC(CO3)C4Cc3nnc[nH]3)nc12 (stereo partly drawn) [Compound 505, 2-(5-((4H-1,2,4-triazol-3-yl)methyl)-2-oxabicyclo[2.1.1]hexan-1-yl)-8-methyl-6-((R)-3-methyl-3-phenylpyrrolidin-1-yl)-[1,2,4]triazolo[1,5-a]pyridine] | ***** (>2.5° C.=*****)
21 | Cc1cc(N2CC[C@@](C)(n3ccc(C(F)(F)F)n3)C2)cn2nc(C(=O)N3CC[C@@]4(CCN(c5cccc(C(=O)O)n5)C4)C3)nc12 [Compound 741] | ***** (>2.5° C.=*****)
22 | Cc1cc(N2CCC(C)(n3ccc(C(F)F)n3)C2)cn2nc(C(=O)N3CC[C@@]4(CCN(c5cccc(C(=O)O)n5)C4)C3)nc12 (stereo partly drawn) [Compound 735, 6-[(5R)-2-[6-[3-[3-(difluoromethyl)pyrazol-1-yl]-3-methyl-pyrrolidin-1-yl]-8-methyl-[1,2,4]triazolo[1,5-a]pyridine-2-carbonyl]-2,7-diazaspiro[4.4]nonan-7-yl]pyridine-2-carboxylic acid] | **** (>1.5-2.5° C.=****)
23 | Cc1cc(N2CC[C@](C)(c3ccc(Cl)c(F)c3)C2)cn2nc(C(=O)N3CC[C@@]4(CCN(c5cccc(C(=O)O)n5)C4)C3)nc12 [Compound 751] | ***** (>2.5° C.=*****)
24 | Cc1cc(N2CC[C@](C)(c3ccccc3)C2)cn2nc(C34CC(CO3)C4c3nc(NC(=O)C4CC5(CC(C(=O)O)C5)C4)n[nH]3)nc12 (stereo partly shown) [Compound 560] | ***** (>2.5° C.=*****)
25 | COc1ncc(N2CC[C@@]3(CCN(C(=O)c4nc5c(C)cc(N6CC[C@](C)(c7ccccc7)C6)cn5n4)C3)C2)cc1C(=O)O [Compound 718] | ***** (>2.5° C.=*****)
26 | Cc1cc(N2CC[C@](C)(c3ccccc3)C2)cn2nc(C34CC(CO3)C4N3C[C@]4(CC[C@H](C(=O)O)CC4)NC3=O)nc12 (stereo partly shown) [Compound 525] | ***** (>2.5° C.=*****)
27 | Cc1ccc([C@@]2(C)CCN(c3cc(C)c4nc(C(=O)N5CC[C@@]6(CCN(c7cccc(C(=O)O)n7)C6)C5)nn4c3)C2)cc1 [Compound 750] | ***** (>2.5° C.=*****)
28 | COC1(CNC(=O)c2nc3c(C)cc(N4CC[C@](C)(c5ccccc5)C4)cn3n2)CN(c2cccc(C(=O)O)n2)C1 [Compound 612] | ***** (>2.5° C.=*****)
29 | Cc1cc(N2CC[C@](C)(c3ccccc3)C2)cn2nc(C(=O)N3CC[C@@]4(CCN(C(=O)C56COC(C(=O)O)(C5)C6)C4)C3)nc12 [Compound 726] | ***** (>2.5° C.=*****)
30 | Cc1cc(N2CC[C@](C)(c3ccccc3)C2)cn2nc(C(=O)NC3CCN(c4cccc(S(C)(=N)=O)n4)CC3)nc12 (stereo partly drawn) [Compound 608, 8-methyl-6-[(3R)-3-methyl-3-phenyl-pyrrolidin-1-yl]-N-[1-[6-(methylsulfonimidoyl)-2-pyridyl]-4-piperidyl]-[1,2,4]triazolo[1,5-a]pyridine-2-carboxamide] | ***** (>2.5° C.=*****)
31 | Cc1cc(N2CC[C@](C)(c3ccccc3)C2)cn2nc([C@@]34C[C@@H](CO3)[C@H]4N3CC4(CN(c5cccc(C(=O)O)n5)C4)NC3=O)nc12 [Compound 519] | ***** (>2.5° C.=*****)
32 | Cc1cc(N2CC[C@](C)(c3ccccc3)C2)cn2nc(C34CC(C(=O)Nc5ccnc(C(=O)O)c5)(CO3)C4)nc12 [Compound 456] | ***** (>2.5° C.=*****)
33 | Cc1cc(N2CC[C@](C)(c3ccccc3)C2)cn2nc(C34CC(CO3)C4COC3CCN(c4ccnc(C(=O)O)c4)CC3)nc12 (stereo partly shown) [Compound 502] | ***** (>2.5° C.=*****)
34 | Cc1cc(N2CC[C@](C)(c3ccccc3)C2)cn2nc(C34CC(CO3)C4c3nc(NS(=O)(=O)[C@H]4CC[C@H](C(=O)O)CC4)n[nH]3)nc12 (stereo partly shown) [Compound 562] | ***** (>2.5° C.=*****)
